According to PubChem BioAssay (NCI):
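Method: 48-hour compound exposure of cells in 96-well plates, five concentrations, linear interpolation of endpoints. Abbreviation: GI50, concentration required for 50% inhibition of growth. The concentration for full growth arrest is given as TGI.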

Legend:
Experiment in all cases: inhibition of tumour cell growth, NCI panel, 48 h
HCC-2998 colon = tested on: HCC-2998 colon
HCT-15 colon = tested on: HCT-15 colon
HL-60(TB) leukemia = tested on: HL-60(TB) leukemia
NCI-H23 lung = tested on: NCI-H23 lung
NCI-H460 lung = tested on: NCI-H460 lung
OVCAR-4 ovarian = tested on: OVCAR-4 ovarian
SF-295 CNS = tested on: SF-295 CNS
TK-10 renal = tested on: TK-10 renal
UACC-62 melanoma = tested on: UACC-62 melanoma

Row | SMILES | TGI (HCC-2998 colon) [µM] | TGI (HCT-15 colon) [µM] | TGI (HL-60(TB) leukemia) [µM] | TGI (NCI-H23 lung) [µM] | TGI (NCI-H460 lung) [µM] | TGI (OVCAR-4 ovarian) [µM] | TGI (SF-295 CNS) [µM] | TGI (TK-10 renal) [µM] | TGI (UACC-62 melanoma) [µM] | GI50 (HCT-15 colon) [µM] | GI50 (HL-60(TB) leukemia) [µM] | GI50 (NCI-H23 lung) [µM] | GI50 (NCI-H460 lung) [µM] | GI50 (SF-295 CNS) [µM] | GI50 (TK-10 renal) [µM] | GI50 (UACC-62 melanoma) [µM]
1 | CCOc1ccc(-c2oc(/C=N/NS(=O)(=O)c3ccc(C)cc3)c([N+](=O)[O-])c2-c2ccc(OCC)cc2)cc1 | 31.1 | 18.4 | > 52.9 | 31.4 | 29.7 | 25.4 | 38.4 | 70.3 | 26 | – | – | – | – | – | – | –
2 | C[N+](C)=c1nc(N2CCOCC2)ss1 | > 100 | > 100 | > 100 | > 100 | > 100 | – | > 100 | > 100 | > 100 | – | – | – | – | – | – | –
3 | NC(=O)c1c[se]c(C2OC(COP(=O)(O)CP(=O)(O)OCC3OC(n4cnc5c(N)ncnc54)C(O)C3O)C(O)C2O)n1 (configuration not stated) | – | – | > 100 | > 100 | > 100 | > 100 | > 100 | – | – | – | – | – | – | – | – | –
4 | CCCCCCCCCC(=O)Oc1cccc2onc(C)c12 | > 100 | > 100 | 56.4 | > 100 | > 100 | > 100 | > 100 | > 100 | > 100 | – | – | – | – | – | – | –
5 | COC(=O)C1(F)C(=O)NC(=O)NC1OC (configuration not stated) | – | > 100 | > 100 | > 100 | > 100 | > 100 | > 100 | > 100 | > 100 | – | – | – | – | – | – | –
6 | CC1(C)OC(COCCOCCCCCO)C(COCCOCCCCCO)O1 (configuration not stated) | > 100 | > 100 | – | > 100 | > 100 | > 100 | > 100 | > 100 | > 100 | – | – | – | – | – | – | –
7 | c1ccc(NC[Si]23OCCN(CCO2)CCO3)cc1 | > 100 | – | – | > 100 | > 100 | – | > 100 | > 100 | > 100 | – | – | – | – | – | – | –
8 | O=[N+]([O-])C1C2C=CC(C2)[C@H]1c1ccc(Cl)cc1Cl (some centres not stated) | > 100 | > 100 | 53.2 | > 100 | > 100 | – | > 100 | > 100 | – | – | – | – | – | – | – | –
9 | CC1(C)CC(=O)c2c(oc3cc(O)c(O)cc23)C1 | > 100 | > 100 | 48.5 | – | 85 | 43.4 | > 100 | > 100 | 32 | – | – | – | – | – | – | –
10 | CC(c1ccccc1)N1CC(C)(c2ccccc2)N(O)C(c2ccccc2)C1C (configuration not stated) | 36.9 | – | 13.5 | 56.8 | 27 | – | 37.5 | > 100 | – | – | – | – | – | – | – | –
11 | Cc1ccccc1NC(=O)C(=O)CC(=O)c1ccc([N+](=O)[O-])cc1 | > 100 | > 100 | – | > 100 | > 100 | > 100 | > 100 | > 100 | > 100 | – | – | – | – | – | – | –
12 | COc1ccc(CC2=NCCc3cc(OC)c(OC)cc32)cc1Br | 35.6 | – | 21.7 | > 100 | > 100 | > 100 | 30.4 | > 100 | 36.6 | – | – | – | – | – | – | –
13 | CCOC1=C2NC(Cc3ccc(F)cc3)=NC2C(=O)c2ccccc21 (configuration not stated) | > 100 | – | 22.2 | 53.4 | 52.4 | – | – | > 100 | 63.3 | – | – | – | – | – | – | –
14 | COc1cc2cccc(N=Cc3c(Br)ccc(OC)c3OC(C)C)c2cc1OC | > 100 | – | – | > 100 | > 100 | > 100 | > 100 | > 100 | > 100 | – | – | – | – | – | – | –
15 | CC(=O)OCCC(O[Si](c1ccccc1)(c1ccccc1)C(C)(C)C)C(C)(C)O (configuration not stated) | – | > 100 | – | 68.7 | > 100 | > 100 | 45.6 | > 100 | > 100 | – | – | – | – | – | – | –
16 | CC[P+]1(CC)CCCC1 | > 100 | > 100 | – | > 100 | > 100 | > 100 | > 100 | > 100 | > 100 | – | – | – | – | – | – | –
17 | CC(=O)[CH-]C(=O)c1ccccc1.CC(=O)[CH-]C(=O)c1ccccc1.[CH2-]CCC.[CH2-]CCC.[Sn+4] | – | 2.87 | 1.09 | 1.77 | 4.62 | – | 2.87 | 2.31 | 2.17 | 1.29 | 0.322 | 0.476 | 2.11 | 1.51 | 1.06 | 0.754
18 | COc1nc2c(c(O)c(C)c(=O)n2OC2OC(COC(C)=O)C(OC(C)=O)C(OC(C)=O)C2OC(C)=O)c(=O)n1C (configuration not stated) | > 100 | > 100 | – | > 100 | > 100 | > 100 | > 100 | > 100 | > 100 | – | – | – | – | – | – | –
19 | COc1ccc(C2NCCc3c2[nH]c2ccccc32)cc1 (configuration not stated) | 65.1 | > 100 | > 100 | > 100 | > 100 | – | > 100 | > 100 | > 100 | – | – | – | – | – | – | –
20 | CCOC(=O)C[C@@]12CCCNC1(C)CCc1ccccc12 (some centres not stated) | – | > 100 | > 100 | – | > 100 | – | > 100 | > 100 | > 100 | – | – | – | – | – | – | –
21 | C/C(=N/O)c1ccc2c(c1)C(=NO)c1cc(/C(C)=N/O)ccc1-2 | 33.9 | 36.3 | 91.4 | 35.3 | 31.8 | 30.5 | 29.1 | – | 38.4 | – | – | – | – | – | – | –
